Results on 17 molecules are retold here after patent publication US8362000B2, “Azetidinyl diamides as monoacylglycerol lipase inhibitors” (Janssen Pharmaceutica NV, priority 2009, dated 2013).

One assay concerns the target T1, MGL (Rattus norvegicus, UniProt Q8R431).
T1 construct: one g rat brain was homogenized using a Polytron homogenizer; from tissue; host or cells: rat brain homogenate
T1 sequence (Q8R431 1-303): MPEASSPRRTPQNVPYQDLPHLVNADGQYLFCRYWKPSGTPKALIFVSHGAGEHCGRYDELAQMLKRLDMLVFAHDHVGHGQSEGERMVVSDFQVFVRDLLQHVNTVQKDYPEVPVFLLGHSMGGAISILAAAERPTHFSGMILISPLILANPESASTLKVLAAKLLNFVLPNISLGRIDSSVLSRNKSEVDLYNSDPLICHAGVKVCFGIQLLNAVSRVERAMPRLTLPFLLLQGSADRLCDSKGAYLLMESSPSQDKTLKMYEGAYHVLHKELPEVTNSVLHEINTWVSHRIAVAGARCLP
Kind of assay: 2-AG accumulation assay in rat brain homogenate. Conditions: rat brain homogenate, 2-AG accumulation as percent of vehicle; for 2-AG accumulation, % of vehicle control at 1 µM: compound 1 μM, read-out: Rat Brain 2AG % VehCntrl (%) @ 1 μM. In kind it is biochemical.

The subject of assay [1] is CFA-induced paw radiant heat hypersensitivity. In words: CFA-induced paw radiant heat hypersensitivity. Type of assay: in vivo, rat. Conditions: Rattus norvegicus, po, HPβCD; for inhibition in vivo at 30 mg/kg: 30 mg/kg p.o., last time point 180 or 300 min; for inhibition in vivo at 10 mg/kg: 5 h, 10 mg/kg p.o., last time point 300 min. How it is done: Each rat was placed in a test chamber on a warm glass surface and allowed to acclimate for approximately 10 min. A radiant thermal stimulus (beam of light) was then focused through the glass onto the plantar surface of each hind paw in turn. The thermal stimulus was automatically shut off by a photoelectric relay when the paw was moved or when the cut-off time was reached (20 sec for radiant heat at ˜5 amps). An initial (baseline) response latency to the thermal stimulus was recorded for each animal prior to the injection of complete Freund's adjuvant (CFA). […] Immediately following the post-CFA latency assessment, the indicated test compound or vehicle was administered orally.
The percent reversal (% R) of hypersensitivity was calculated in one of two different ways: 1) using group mean values or 2) using individual animal values. More specifically:
Method 2. For some compounds, the % R of hypersensitivity was calculated separately for each animal according to the following formula: % reversal=[(individual treatment response−individual CFA response)/(individual baseline response−individual CFA response)]×100. Results are given as a mean of the maximum % reversal values calculated for each individual animal.

For another assay, the target named is T2, mutant MGL (Homo sapiens, UniProt Q99685, L169S/L176S).
T2 sequence (Q99685 1-303 L169S/L176S): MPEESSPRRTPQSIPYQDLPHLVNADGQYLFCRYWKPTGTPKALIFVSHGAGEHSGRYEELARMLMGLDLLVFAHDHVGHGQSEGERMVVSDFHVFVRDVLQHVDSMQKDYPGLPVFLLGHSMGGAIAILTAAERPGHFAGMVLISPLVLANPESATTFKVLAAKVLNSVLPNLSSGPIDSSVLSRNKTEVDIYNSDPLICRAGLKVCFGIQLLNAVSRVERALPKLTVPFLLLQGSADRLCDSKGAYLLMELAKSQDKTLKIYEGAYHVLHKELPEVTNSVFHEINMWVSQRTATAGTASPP
In words: MGL ThermoFluor assay - mutant. In kind it is binding.

Assay [2] has as its target T3, purified wild type MGL (wt-MGLL 6H-11-313) (Homo sapiens, UniProt Q99685).
T3 sequence (Q99685 1-303): T2 sequence (Q99685 1-303 L169S/L176S) with S169L, S176L

[3] abbreviates: group mean values, read-out: CFA thermal hypersensitivity Method 1: peak % reversal.
Where [4] appears, read: ThermoFluor concentration-response, read-out: MGL mutant ThermoFluor Kd.
[5] abbreviates: individual animal values, read-out: CFA thermal hypersensitivity Method 2: peak % reversal.
Setting [6] is: ThermoFluor thermal stability binding assay, read-out: MGL mutant ThermoFluor Kd.

Structures are written as SMILES. Positions count from the first letter of the chain named. Like-named read-outs stand apart in the source and are kept apart here.

One may read the IC50 as the concentration at which inhibition is half-maximal. Higher therefore signals a need for much substance.

As to `O=C(c1ccc2oc(-c3ccccc3)nc2c1)N1CC(N2CCN(C(=O)c3nccs3)CC2)C1` [Cpd 317, 2-Phenyl-5-({3-[4-(1,3-thiazol-2-ylcarbonyl)piperazin-1-yl]azetidin-1-yl}carbonyl)-1,3-benzoxazole], the 2-AG accumulation, % of vehicle control at 1 µM at MGL amounted to 417%. Besides, the inhibition in vivo at 30 mg/kg in assay [1] (setting [3]) was found to be 43%.
Take `O=C(c1ccc2c(ccn2-c2ccc(C(F)(F)F)cc2)c1)N1CC(N2CCN(C(=O)c3nccs3)CC2)C1` [Cpd 1357, 5-({3-[4-(1,3-Thiazol-2-ylcarbonyl)piperazin-1-yl]azetidin-1-yl}carbonyl)-1-[4-(trifluoromethyl)phenyl]-1H-indole]: at mutant MGL (setting [4]), the Kd was found to be 0.002 µM. In addition, the inhibition in vivo at 30 mg/kg in assay [1] (setting [3]) turned out to be 51%; in assay [1] (setting [5]), 46.1%. This molecule also gave an IC50 in assay [2] of less than 5 nM.
Consider `Cc1cn(-c2ccccc2)c2ccc(C(=O)N3CC(N4CCN(C(=O)c5nccs5)CC4)C3)cc12` [Cpd 1054], for which the Kd on mutant MGL (setting [6]) is 0.001 µM; on mutant MGL (ThermoFluor, compound concentration measured by qNMR, read-out: MGL mutant ThermoFluor qKd (μM) (using qNMR conc.)), 0.001 µM. In addition, the inhibition in vivo at 30 mg/kg in assay [1] (setting [3]) turned out to be 27.6%. Moreover, half-maximal inhibition in assay [2] (IC50) required 5 nM.
As to `O=C(c1ccc2c(ccn2-c2ncccn2)c1)N1CC(N2CCN(C(=O)c3nccs3)CC2)C1` [Cpd 1174, 1-Pyrimidin-2-yl-5-({3-[4-(1,3-thiazol-2-ylcarbonyl)piperazin-1-yl]azetidin-1-yl}carbonyl)-1H-indole], at mutant MGL (setting [4]), the Kd is 0.015 µM. The inhibition in vivo at 30 mg/kg in assay [1] (setting [3]) was determined as 13.6%. The 50% inhibitory concentration (IC50) in assay [2] is 66 nM.
As to `O=C(c1ccc2c(ccn2-c2ccc(C(F)(F)F)cc2)c1)N1CC(N2CCN(C(=O)c3cscn3)CC2)C1` [Cpd 1359, 5-({3-[4-(1,3-Thiazol-4-ylcarbonyl)piperazin-1-yl]azetidin-1-yl}carbonyl)-1-[4-(trifluoromethyl)phenyl]-1H-indole], the Kd at mutant MGL (setting [4]) worked out at 0.008 µM. Besides, the inhibition in vivo at 30 mg/kg in assay [1] (setting [3]) was 5.1%; in assay [1] (setting [5]), 12.7%. The IC50 in assay [2] was less than 5 nM.
Consider `O=C(c1ccc2c(ccn2-c2ccc(F)cc2)c1)N1CC(N2CCN(C(=O)c3cscn3)CC2)C1` [Cpd 1358, 1-(4-Fluorophenyl)-5-({3-[4-(1,3-thiazol-4-ylcarbonyl)piperazin-1-yl]azetidin-1-yl}carbonyl)-1H-indole], for which the Kd on mutant MGL (setting [4]) is 0.007 µM. For the same molecule, the inhibition in vivo at 30 mg/kg in assay [1] (setting [3]) came to 25.4%. Moreover, the IC50 in assay [2] is less than 5 nM.
As to `O=C(c1nccs1)N1CCN(C2CN(C(=O)c3sc4c(F)c(C(F)(F)F)ccc4c3Cl)C2)CC1` [Cpd 650], the 2-AG accumulation, % of vehicle control at 1 µM at MGL was 960%. For the same molecule, in assay [1] (setting [3]), the inhibition in vivo at 30 mg/kg came to 29.9%. Also, the IC50 in assay [2] is 6 nM.
In the case of `O=C(c1ccccc1)N1CCN(C2CN(C(=O)c3ccc(-c4ccc(Cl)c(C(F)(F)F)c4)cc3)C2)CC1` [Cpd 232, 1-(1-{[4′-Chloro-3′-(trifluoromethyl)biphenyl-4-yl]carbonyl}azetidin-3-yl)-4-(phenylcarbonyl)piperazine], the 2-AG accumulation, % of vehicle control at 1 µM at MGL is 152%. In addition, the 2-AG accumulation, % of vehicle control at 10 µM at MGL (compound 10 μM, read-out: Rat Brain 2AG % VehCntrl (%) @ 10 μM) was found to be 427%. Also, the inhibition in vivo at 30 mg/kg in assay [1] (setting [3]) was determined as 9.6%; in assay [1] (setting [5]) it was 8%. In assay [2], this molecule had an IC50 of 82.9 nM.
As to `O=C(c1ccc2c(-c3cccc(C(F)(F)F)c3)c[nH]c2c1)N1CC(N2CCN(C(=O)c3nccs3)CC2)C1` [Cpd 1341, 6-({3-[4-(1,3-Thiazol-2-ylcarbonyl)piperazin-1-yl]azetidin-1-yl}carbonyl)-3-[3-(trifluoromethyl)phenyl]-1H-indole], the Kd at mutant MGL (setting [4]) was found to be 0.001 µM. The inhibition in vivo at 30 mg/kg in assay [1] (setting [3]) came out at 7.5%. Also, the IC50 in assay [2] is less than 5 nM.
Take `O=C(c1nccs1)N1CCN(C2CN(C(=O)c3sc4cc(Br)ccc4c3Cl)C2)CC1` [Cpd 326, 1-{1-[(6-Bromo-3-chloro-1-benzothiophen-2-yl)carbonyl]azetidin-3-3yl}-4-(1,3-thiazol-2-ylcarbonyl)piperazine]: the Kd at mutant MGL (setting [6]) turned out to be 0.0004 µM. Further, the figures for the inhibition in vivo at 30 mg/kg in assay [1] (setting [3]) and in assay [1] (setting [5]) were 17.3% and 17.5%, respectively. In addition, the IC50 in assay [2] was less than 5 nM.
As for `Cc1cn(-c2ccc(F)cc2)c2ccc(C(=O)N3CC(N4CCN(C(=O)c5nccs5)CC4)C3)cc12` [Cpd 1088, 1-(4-Fluorophenyl)-3-methyl-5-({3-[4-(1,3-thiazol-2-ylcarbonyl)piperazin-1-yl]azetidin-1-yl}carbonyl)-1H-indole], at MGL, the 2-AG accumulation, % of vehicle control at 1 µM worked out at 760%. Moreover, the Kd at mutant MGL (setting [6]) worked out at 0.001 µM. For the same molecule, in assay [1] (setting [3]), the inhibition in vivo at 30 mg/kg was found to be 35.3%.
For `Cn1cc(-c2ccccc2)c2ccc(C(=O)N3CC(N4CCN(C(=O)c5nccs5)CC4)C3)cc21` [Cpd 1132, 1-Methyl-3-phenyl-6-({3-[4-(1,3-thiazol-2-ylcarbonyl)piperazin-1-yl]azetidin-1-yl}carbonyl)-1H-indole], the Kd at mutant MGL (setting [4]) amounted to 0.002 µM. Moreover, the inhibition in vivo at 30 mg/kg in assay [1] (setting [3]) was 0%. Moreover, in assay [2], the half-maximal inhibitory concentration (IC50) turned out to be 23 nM.
For `Cc1c(C(=O)N2CC(N3CCN(C(=O)c4nccs4)CC3)C2)sc2cc(C(F)(F)F)ccc12` [Cpd 899, 1-(1-{[3-Methyl-6-(trifluoromethyl)-1-benzothiophen-2-yl]carbonyl}azetidin-3-yl)-4-(1,3-thiazol-2-ylcarbonyl)piperazine], in assay [1] (setting [3]), the inhibition in vivo at 30 mg/kg was 80.1%. Moreover, the IC50 in assay [2] was less than 5 nM.
Turning to `O=C(c1ccc2c(cnn2-c2ccc(F)c(F)c2)c1)N1CC(N2CCN(C(=O)c3nccs3)CC2)C1` [Cpd 1106, 1-(3,4-Difluorophenyl)-5-({3-[4-(1,3-thiazol-2-ylcarbonyl)piperazin-1-yl]azetidin-1-yl}carbonyl)-1H-indazole], the 2-AG accumulation, % of vehicle control at 1 µM on MGL was determined as 784%. In addition, in assay [1] (setting [3]), the inhibition in vivo at 30 mg/kg came out at 45%.
Take `O=C(c1ccccc1)N1CCN(C2CN(C(=O)c3ccc4c(ccn4-c4ccc(C(F)(F)F)cc4)c3)C2)CC1` [Cpd 126, 5-({3-[4-(Phenylcarbonyl)piperazin-1-yl]azetidin-1-yl}carbonyl)-1-[4-(trifluoromethyl)phenyl]-1H-indole]: in assay [1] (setting [3]), the inhibition in vivo at 10 mg/kg came out at 40.8% and the inhibition in vivo at 30 mg/kg turned out to be 51%. For the same molecule, in assay [1] (setting [5]), the inhibition in vivo at 10 mg/kg turned out to be 40.4% and the inhibition in vivo at 30 mg/kg is 79.5%.
`O=C(c1ccc2nc(-c3ccccc3)sc2c1)N1CC(N2CCN(C(=O)c3nccs3)CC2)C1` [Cpd 1125, 2-Phenyl-6-({3-[4-(1,3-thiazol-2-ylcarbonyl)piperazin-1-yl]azetidin-1-yl}carbonyl)-1,3-benzothiazole]: the Kd on mutant MGL (setting [4]) stood at 0.037 µM. For the same molecule, the inhibition in vivo at 30 mg/kg in assay [1] (setting [3]) is 64.5%; in assay [1] (setting [5]) it was 90.3%. This molecule also yielded an IC50 in assay [2] of 19 nM.
On to `O=C(c1nccs1)N1CCN(C2CN(C(=O)c3sc4cc(C(F)(F)F)ccc4c3F)C2)CC1` [Cpd 895, 1-(1-{[3-Fluoro-6-(trifluoromethyl)-1-benzothiophen-2-yl]carbonyl}azetidin-3-yl)-4-(1,3-thiazol-2-ylcarbonyl)piperazine], for which the inhibition in vivo at 30 mg/kg in assay [1] (setting [3]) amounted to 23.4%. This molecule showed an IC50 in assay [2] of less than 5 nM.
